Data published in patent publication US20170058314A1, “NOVEL METHODOLOGY FOR IDENTIFYING ANTI-PERSISTER ACTIVITY AND ANTIMICROBIAL SUSCEPTIBILITY FOR BORRELIA BURGDORFERI AND OTHER BACTERIA” (priority 2014, published 2017).

Legend:
[1] = test system: stationary phase B. burgdorferi persisters (strain B31); test: SYBR Green I/PI viability assay (plate reader), FDA-approved drug library screen
[2] = test system: B. burgdorferi (growing, strain B31); test: MIC determination, standard microdilution method; assay type: cell-based, Borrelia burgdorferi; conditions: Borreliella burgdorferi; growing B. burgdorferi; read-out: MIC
[3] = test system: B. burgdorferi log and stationary phase cultures; test: epi-fluorescence microscope counting after antibiotic exposure (persister frequency, planktonic forms); assay type: cell-based, Borrelia burgdorferi
[4] = 50 μM, 7 days, stationary phase

## C[C@H]1c2cccc(O)c2C(=O)C2=C(O)[C@]3(O)C(=O)C(C(N)=O)=C(O)[C@@H](N(C)C)[C@@H]3[C@@H](O)[C@@H]21 [Doxycycline]
[1]; [4]
  Ratio of Green/Red fluorescence, Primary screening: 7.62
  Ratio of Green/Red fluorescence, Rescreening (first column): 7.35
  Ratio of Green/Red fluorescence, Rescreening (second column): 7.58
[1]; Borreliella burgdorferi, 168 h, read-out: Residual viable cells (regression equation, SYBR Green I/PI assay)
  viability at 50 µM: 67%
[2]
  MIC: ≤ 0.25 µg/mL
[3]; 3-day log phase culture
  persister frequency (percentage of live cells after antibiotic treatment, in brackets): (6.4%)
[3]; 7-day stationary phase culture
  persister frequency (in brackets): (24%)
[3]; 10-day stationary phase culture
  persister frequency (in brackets): (~25%)
[3]; 10-day-old stationary phase culture, 10 μg/mL, 7 days, FIG. 17A
  planktonic form cells remaining green (live): about 71%
